Measured values taken from US20250235411A1, “COMPOSITIONS AND METHODS FOR DELIVERY OF AGENTS” (Kernal Biologics, Inc., priority 2021, published 2025).

Columns and labels:
[1] = tested on: B6 albino mice; assay: In vivo luciferase quantitation, Example 1 (IVIS, in vivo and ex vivo lung, liver, spleen); design: species or system mouse; conditions: lipid added at 50 mol % to liver targeting LNPs
Method: Luciferase mRNA was formulated in LNPs containing a cationic ionizable lipid LIP001, cholesterol, DSPC, and PEG-DMG, in the presence or absence of the cationic lipid or cationic ionizable lipid pKa>7 according to the following molar ratios:
(§1) The ratio of the sum of ionizable amines and cationic quaternary ammonium ions to mRNA phosphates was 6. Lipids were dissolved in ethanol and mRNA was dissolved in 50 mM Citrate buffer pH 5.0. The organic and aqueous phases were combined at a flow rate of 12 mL/min on a Precision Nanosystems NanoAssemblr at a ratio of 3:1 (aqueous: organic). The product was immediately diluted to 16.5% ethanol using MilliQ water. The diluted product was dialyzed against a volume of 50 mM Tris pH 7.5 45 mM NaCl that was 200-fold in excess. The dialyzed product was concentrated using Amicon Ultra 100 kDa centrifuge tubes and sterile filtered. mRNA concentration and encapsulation was assessed by the Invitrogen Ribogreen assay.
(§2) LNPs were administered to B6 albino mice via the tail vein at a dose of 0.3 mg/kg. After six hours bioluminescence was measured using an IVIS Spectrum imager. Mice were treated with 150 mg/kg luciferin substrate administered via intraperitoneal injection. Immediately following the in vivo image mice were euthanized and the lung, liver and spleen were harvested for ex vivo imaging.

[2] = tested on: BALB/c mice; assay: In vivo luciferase quantitation, Example 4 (cationic ionizable lipid pKa>7 LNPs); design: species or system mouse; conditions: LIP021 LNPs with LIP001 or without lipid <7 pKa
Method: as §1, with “phosphates in the LNP” for “phosphates”, “300-fold” for “200-fold”
as §2, with “BALB/c” for “B6 albino”, “0.5” for “0.3”, “eighteen” for “six”

Row | SMILES | shift of distribution of luciferase expression to the lungs [1] [fold] | lung targeting, ex vivo bioluminescence (FIG. 10-11) [2]
1 | CC(C)CCC[C@@H](C)[C@H]1CC[C@H]2[C@@H]3CC=C4C[C@@H](OC(=O)NCCN(C)C)CC[C@]4(C)[C@H]3CC[C@]12C.Cl [DC Cholesterol, DC- Cholesterol] | ~40 | 
2 | CCCCC/C=C\C/C=C\CCCCCCCC(=O)OCC(COC(=O)CCC(OCCCCCCCC)OCCCCCCCC)COC(=O)NCCCN1CCC(O)CC1 (centres unmarked) [LIP021, 3-((4,4-bis(octyloxy)butanoyl)oxy)-2-((((3-(4-hydroxy-piperidin-1-yl)propyl)carbamoyl)oxy)methyl) propyl (9Z,12Z)-octadeca-9,12-dienoate] |  | does not exhibit a lung-targeting effect
